Experimental data: patent US20090012140A1, “Preparation of Telmisartan Salts with Improved Solubility” (LEK PHARMACEUTICALS D.D, priority 2004, published 2009)

What was measured:
Solubility in water = assay type: physicochemical; conditions: produces a very viscous solution
Method: (§1) In order to prepare a pharmaceutical composition physical properties were measured. The solubility of the telmisartan of its salt in accordance with our invention surpasses the solubility of known forms of telmisartan, and are above 10 μg/ml in phosphate buffer pH=6.8 and above 50 μg/ml in a physiologically relevant medium if measured as above. […] The salts are also very soluble in water (i.e dissolving approximately 500 mg/mL of Na salt Form 2 produces a very viscous solution, which can hardly be stirred with a magnetic stirrer.

[1] = Amount dissolved after 30 minutes at 37° C. (50 mg of compound in 100 ml baker, stirring at 600/min); assay type: physicochemical; conditions: for Solubility compared with sodium salt of telmisartan manufactured by lyophilization: comparison in words; for C30 min: 30 minutes, 37° C., 600/min
Method: as §1

[2] = medium pH = 1.2, 50 mg in 100 ml
[3] = phosphate buffer pH = 6.8, 50 mg in 100 ml
[4] = physiologically relevant medium: phosphate buffer pH 6.76 + sodium taurocholate (2.5 mM) + lecitin (0.5 mM)

Structure (SMILES)	Amount dissolving in water (Solubility in water)	C30 min [1, 2] [µg/mL]	C30 min [1, 3] [µg/mL]	C30 min [1, 4] [µg/mL]	Solubility compared with sodium salt of telmisartan manufactured by lyophilization ([1]; listed as crystalline sodium salt of telmisartan)	Solubility compared with sodium salt of telmisartan manufactured by lyophilization [1]
CCCc1nc2c(C)cc(-c3nc4ccccc4n3C)cc2n1Cc1ccc(-c2ccccc2C(=O)O)cc1 [Form A, telmisartan]	–	>500	0.9	1.1	–	–
CCCc1nc2c(C)cc(-c3nc4ccccc4n3C)cc2n1Cc1ccc(-c2ccccc2C(=O)O)cc1 [Amorphous telmisartan, telmisartan]	–	–	17.6	87.5	–	–
CCCc1nc2c(C)cc(-c3nc4ccccc4n3C)cc2n1Cc1ccc(-c2ccccc2C(=O)[O-])cc1.[Na+]	–	–	–	–	–	substantially surpasses that manufactured by lyophilization

Continued, in another order:

Amount dissolving in water (Solubility in water)	C30 min [1, 2] [µg/mL]	C30 min [1, 3] [µg/mL]	C30 min [1, 4] [µg/mL]	Structure (SMILES)	Solubility compared with sodium salt of telmisartan manufactured by lyophilization ([1]; listed as crystalline sodium salt of telmisartan)	Solubility compared with sodium salt of telmisartan manufactured by lyophilization [1]
approximately 500 mg/mL	–	–	–	CCCc1nc2c(C)cc(-c3nc4ccccc4n3C)cc2n1Cc1ccc(-c2ccccc2C(=O)[O-])cc1.[Na+] [Na salt Form 2, Crystalline Na Salt of Telmisartane Form 2]	surpasses that of the sodium salt of telmisartan manufactured by lyophilization	–
–	394.6	29	167.3	CCCc1nc2c(C)cc(-c3nc4ccccc4n3C)cc2n1Cc1ccc(-c2ccccc2C(=O)[O-])cc1.[Na+] [Amorphous Na salt of telmisartan, Na Salt of Telmisartan]	–	–
